Data taken from ChEMBL document CHEMBL1121515 (J Med Chem, 1980).
Activity calls are given as the source filed them. The calls are words filed in the database; no cut-off is given here.

Columns and labels:
[1] = organism: Mus musculus; test: Relative CNS activity of compound was measured in mice; (-) </= […]; type: functional, Central nervous system
[2] = Lethal dose was measured in mice 0.5 hr post intraperitoneal administration; type: toxicity, organism-based; settings: mouse, in vivo, ip
[3] = system: Rattus norvegicus; test: Conditioned avoidance response (CAR) was measured in rats at 5 mg/kg doses; I = inactive; type: functional, organism-based; set-up: dose 5 mg/kg
[4] = system: Rattus norvegicus; test: Conditioned avoidance response (CAR) was measured in rats at 20 mg/kg doses; I = inactive; type: functional, organism-based; set-up: dose 20 mg/kg
[5] = system: Rattus norvegicus; test: Conditioned avoidance response (CAR) was measured in rats at 10 mg/kg; I = inactive; type: functional, organism-based; set-up: dose 10 mg/kg
[6] = system: Rattus norvegicus; test: Conditioned avoidance response (CAR) was measured in rats at 20 mg/kg; A = active; type: functional, organism-based; set-up: dose 20 mg/kg
[7] = organism: Mus musculus; test: Relative CNS activity of compound was measured in mice (++ =for activity in 4-5 assays); type: functional, organism-based; settings: Central nervous system
[8] = system: Rattus norvegicus; test: Conditioned avoidance response (CAR) was measured in rats at 40 mg/kg; Active; type: functional, organism-based; set-up: dose 40 mg/kg
[9] = system: Rattus norvegicus; test: Conditioned avoidance response (CAR) was measured in rats at 10 mg/kg; Inactive; type: functional, organism-based; set-up: dose 10 mg/kg
[10] = organism: Rattus norvegicus; test: Conditioned avoidance response (CAR) was measured in rats; I = inactive; type: functional, organism-based
[11] = organism: Rattus norvegicus; test: Conditioned avoidance response (CAR) was measured in rats; Inactive; type: functional, organism-based
[12] = organism: Mus musculus; test: Relative CNS activity of compound was measured in mice (for activity in 2-3 assays); type: functional, organism-based; settings: Central nervous system
[13] = system: Rattus norvegicus; test: Conditioned avoidance response (CAR) was measured in rats at 10 mg/kg;I = inactive; type: functional, organism-based; set-up: dose 10 mg/kg
[14] = system: Rattus norvegicus; test: Conditioned avoidance response (CAR) was measured in rats at 40 mg/kg; A = active; type: functional, organism-based; set-up: dose 40 mg/kg
[15] = system: Rattus norvegicus; test: Conditioned avoidance response (CAR) was measured in rats at 40 mg/kg;A = active; type: functional, organism-based; set-up: dose 40 mg/kg
[16] = organism: Mus musculus; test: Relative CNS activity of compound was measured in mice (+++ =for activity in > 6 assays); type: functional, organism-based; settings: Central nervous system

CC1Cc2cccc(-c3ccccc3)c2CN1.Cl (configuration not stated)
Activity [1]: <=1
LD50 at 0.5 h [2]: 146 mg/kg
CAR [3]: inactive
CAR [4]: inactive

Cl.c1ccc(-c2cccc3c2CNCC3)cc1
CAR [5]: inactive
Activity [1]: <=1
LD50 at 0.5 h [2]: 82 mg/kg
CAR [6]: Active

COc1ccccc1-c1cccc2c1CNCC2.Cl
LD50 at 0.5 h [2]: 81 mg/kg
Activity [7]: Active

COc1cccc(-c2cccc3c2CNCC3)c1.Cl
CAR [8]: Active
LD50 at 0.5 h [2]: < 160 mg/kg
CAR [9]: inactive
Activity [7]: Active

Cl.c1ccc(CN2CCc3cccc(-c4ccccc4)c3C2)cc1
Activity [1]: <=1
LD50 at 0.5 h [2]: 158 mg/kg
CAR [10]: inactive

COc1ccccc1-c1cccc2c1CN(Cc1ccccc1)CC2.Cl
Activity [1]: <=1
LD50 at 0.5 h [2]: > 160 mg/kg
CAR [11]: inactive

COc1cccc(-c2cccc3c2CN(C)CC3)c1.Cl
CAR [8]: Active
LD50 at 0.5 h [2]: 156 mg/kg
CAR [9]: inactive
Activity [12]: Weak activity

COc1ccccc1-c1cccc2c1CN(C)CC2.Cl
CAR [8]: Active
Activity [1]: <=1
LD50 at 0.5 h [2]: 81 mg/kg
CAR [9]: inactive

CC1Cc2cccc(-c3ccccc3)c2CN1Cc1ccccc1.Cl (configuration not stated)
LD50 at 0.5 h [2]: 227 mg/kg
Activity [12]: Weak activity
CAR [13]: inactive
CAR [14]: Active

COc1cccc(-c2cccc3c2CN(Cc2ccccc2)CC3)c1.Cl
Activity [1]: <=1
LD50 at 0.5 h [2]: > 320 mg/kg
CAR [11]: inactive

Br.CC1Cc2cccc(-c3ccccc3)c2CN1C (configuration not stated)
LD50 at 0.5 h [2]: < 320 mg/kg
CAR [10]: inactive
Activity [7]: Active

CN1CCc2cccc(-c3ccccc3)c2C1.O=C(O)/C=C/C(=O)O
CAR [15]: Active
LD50 at 0.5 h [2]: < 320 mg/kg
CAR [13]: inactive
Activity [16]: Weak activity
